The structures appear in SMILES notation.
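Also: luminescence signal used as surrogate measure of viable cells; spheroids exposed to compounds for seven days before readout; 100% = DMSO vehicle control viability as luminescence relative to vehicle.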

One assay relates to 429239-143-T-J1-PDC complex spheroid viability. Briefly: Anticancer human tumor 429239-143-T-J1-PDC patient-derived small cell lung carcinoma cell line growth inhibition [POLQ]. The following applies: second compound 0.0316 µM; first compound 3.16 µM; stronger effect = lower value. In outline:
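Patient-derived tumour cells were co-cultured with HUVEC and mesenchymal stem cells as multicellular spheroids at 37 °C. They were treated with POLQ inhibitors (novobiocin, ART-558, RP6685) alone or combined with other agents. Top concentrations were at or near clinical Cmax (otherwise 10 microM; SN-38 at 1 microM), decreasing in half-log steps.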
For `COc1cc2cc(C(=O)CCC(=O)O)sc2cc1OC` + Cc1cccc(N(C)C(=O)C2C(O)CCN2c2nc(C)cc(C(F)(F)F)c2C#N)c1, the viability, T/C was 109%.

With `CC1COCCN1c1cc(-c2ccnn2C)c2ccnc(-c3ccn[nH]3)c2n1` (stereo unspecified) + Nc1ccc(C#CCN(C(=O)Cc2ncc(C(F)(F)F)cc2C(F)(F)F)c2ccc(F)cc2)nn1, the viability, T/C is 4.99%.

Regarding `COc1cccc2c1C(=O)c1c(O)c3c(c(O)c1C2=O)CC(O)(C(=O)CO)CC3OC1CC(N)C(O)C(C)O1` (stereo unspecified) + Nc1ccc(C#CCN(C(=O)Cc2ncc(C(F)(F)F)cc2C(F)(F)F)c2ccc(F)cc2)nn1, the viability, T/C was 0.09%.

The assay is the same for the next values; noted with them: second compound 0.0316 µM; first compound 10 µM; stronger effect = lower value.
With `C#Cc1c(F)ccc2cc(O)cc(-c3ncc4c(N5CC6CCC(C5)N6)nc(OCC56CCCN5CC(F)C6)nc4c3F)c12` (stereo unspecified) + Cc1cccc(N(C)C(=O)C2C(O)CCN2c2nc(C)cc(C(F)(F)F)c2C#N)c1, the viability, T/C was 100%.

For `CC1COCCN1c1cc(-c2ccnn2C)c2ccnc(-c3ccn[nH]3)c2n1` (stereo unspecified) + Cc1cccc(N(C)C(=O)C2C(O)CCN2c2nc(C)cc(C(F)(F)F)c2C#N)c1, the viability, T/C is 10.9%.

With `COc1cc2cc(C(=O)CCC(=O)O)sc2cc1OC` + Cc1cccc(N(C)C(=O)C2C(O)CCN2c2nc(C)cc(C(F)(F)F)c2C#N)c1, the viability, T/C is 89.5%.

As for `CC1COCCN1c1cc(-c2ccnn2C)c2ccnc(-c3ccn[nH]3)c2n1` (stereo unspecified) + Nc1ccc(C#CCN(C(=O)Cc2ncc(C(F)(F)F)cc2C(F)(F)F)c2ccc(F)cc2)nn1, the viability, T/C was 3.79%.

For the compound `COc1cccc2c1C(=O)c1c(O)c3c(c(O)c1C2=O)CC(O)(C(=O)CO)CC3OC1CC(N)C(O)C(C)O1` (stereo unspecified) + Nc1ccc(C#CCN(C(=O)Cc2ncc(C(F)(F)F)cc2C(F)(F)F)c2ccc(F)cc2)nn1, the viability, T/C was 0.32%.

The same assay, now with this note: second compound 0.1 µM; first compound 0.0316 µM; stronger effect = lower value.
As for `C#Cc1c(F)ccc2cc(O)cc(-c3ncc4c(N5CC6CCC(C5)N6)nc(OCC56CCCN5CC(F)C6)nc4c3F)c12` (stereo unspecified) + Cc1cccc(N(C)C(=O)C2C(O)CCN2c2nc(C)cc(C(F)(F)F)c2C#N)c1, the viability, T/C was 117%.

Turning to `CC1COCCN1c1cc(-c2ccnn2C)c2ccnc(-c3ccn[nH]3)c2n1` (stereo unspecified) + Cc1cccc(N(C)C(=O)C2C(O)CCN2c2nc(C)cc(C(F)(F)F)c2C#N)c1, the viability, T/C is 83.7%.

As to `COc1cc2cc(C(=O)CCC(=O)O)sc2cc1OC` + Cc1cccc(N(C)C(=O)C2C(O)CCN2c2nc(C)cc(C(F)(F)F)c2C#N)c1, the viability, T/C is 96.1%.

As to `CC1COCCN1c1cc(-c2ccnn2C)c2ccnc(-c3ccn[nH]3)c2n1` (stereo unspecified) + Nc1ccc(C#CCN(C(=O)Cc2ncc(C(F)(F)F)cc2C(F)(F)F)c2ccc(F)cc2)nn1, the viability, T/C is 91.9%.

For the compound `COc1cccc2c1C(=O)c1c(O)c3c(c(O)c1C2=O)CC(O)(C(=O)CO)CC3OC1CC(N)C(O)C(C)O1` (stereo unspecified) + Nc1ccc(C#CCN(C(=O)Cc2ncc(C(F)(F)F)cc2C(F)(F)F)c2ccc(F)cc2)nn1, the viability, T/C was 83.5%.

Staying with this assay, now noted: second compound 0.1 µM; first compound 0.1 µM; stronger effect = lower value.
As for `C#Cc1c(F)ccc2cc(O)cc(-c3ncc4c(N5CC6CCC(C5)N6)nc(OCC56CCCN5CC(F)C6)nc4c3F)c12` (stereo unspecified) + Cc1cccc(N(C)C(=O)C2C(O)CCN2c2nc(C)cc(C(F)(F)F)c2C#N)c1, the viability, T/C was 110%.

Regarding `CC1COCCN1c1cc(-c2ccnn2C)c2ccnc(-c3ccn[nH]3)c2n1` (stereo unspecified) + Cc1cccc(N(C)C(=O)C2C(O)CCN2c2nc(C)cc(C(F)(F)F)c2C#N)c1, the viability, T/C is 54.4%.

Take `COc1cc2cc(C(=O)CCC(=O)O)sc2cc1OC` + Cc1cccc(N(C)C(=O)C2C(O)CCN2c2nc(C)cc(C(F)(F)F)c2C#N)c1: the viability, T/C was 97.9%.

As for `CC1COCCN1c1cc(-c2ccnn2C)c2ccnc(-c3ccn[nH]3)c2n1` (stereo unspecified) + Nc1ccc(C#CCN(C(=O)Cc2ncc(C(F)(F)F)cc2C(F)(F)F)c2ccc(F)cc2)nn1, the viability, T/C is 80.6%.

With `COc1cccc2c1C(=O)c1c(O)c3c(c(O)c1C2=O)CC(O)(C(=O)CO)CC3OC1CC(N)C(O)C(C)O1` (stereo unspecified) + Nc1ccc(C#CCN(C(=O)Cc2ncc(C(F)(F)F)cc2C(F)(F)F)c2ccc(F)cc2)nn1, the viability, T/C is 42.8%.

Still in this assay, the particulars now being: second compound 0.1 µM; first compound 0.316 µM; stronger effect = lower value.
For the compound `C#Cc1c(F)ccc2cc(O)cc(-c3ncc4c(N5CC6CCC(C5)N6)nc(OCC56CCCN5CC(F)C6)nc4c3F)c12` (stereo unspecified) + Cc1cccc(N(C)C(=O)C2C(O)CCN2c2nc(C)cc(C(F)(F)F)c2C#N)c1, the viability, T/C was 89.7%.

For the compound `CC1COCCN1c1cc(-c2ccnn2C)c2ccnc(-c3ccn[nH]3)c2n1` (stereo unspecified) + Cc1cccc(N(C)C(=O)C2C(O)CCN2c2nc(C)cc(C(F)(F)F)c2C#N)c1, the viability, T/C is 26.7%.

For the compound `COc1cc2cc(C(=O)CCC(=O)O)sc2cc1OC` + Cc1cccc(N(C)C(=O)C2C(O)CCN2c2nc(C)cc(C(F)(F)F)c2C#N)c1, the viability, T/C is 109%.

Take `CC1COCCN1c1cc(-c2ccnn2C)c2ccnc(-c3ccn[nH]3)c2n1` (stereo unspecified) + Nc1ccc(C#CCN(C(=O)Cc2ncc(C(F)(F)F)cc2C(F)(F)F)c2ccc(F)cc2)nn1: the viability, T/C was 62.9%.

As to `COc1cccc2c1C(=O)c1c(O)c3c(c(O)c1C2=O)CC(O)(C(=O)CO)CC3OC1CC(N)C(O)C(C)O1` (stereo unspecified) + Nc1ccc(C#CCN(C(=O)Cc2ncc(C(F)(F)F)cc2C(F)(F)F)c2ccc(F)cc2)nn1, the viability, T/C is 7.41%.

Still in this assay, the particulars now being: second compound 0.1 µM; first compound 1 µM; stronger effect = lower value.
As to `C#Cc1c(F)ccc2cc(O)cc(-c3ncc4c(N5CC6CCC(C5)N6)nc(OCC56CCCN5CC(F)C6)nc4c3F)c12` (stereo unspecified) + Cc1cccc(N(C)C(=O)C2C(O)CCN2c2nc(C)cc(C(F)(F)F)c2C#N)c1, the viability, T/C was 101%.

On to `CC1COCCN1c1cc(-c2ccnn2C)c2ccnc(-c3ccn[nH]3)c2n1` (stereo unspecified) + Cc1cccc(N(C)C(=O)C2C(O)CCN2c2nc(C)cc(C(F)(F)F)c2C#N)c1, for which the viability, T/C is 11.2%.

As to `COc1cc2cc(C(=O)CCC(=O)O)sc2cc1OC` + Cc1cccc(N(C)C(=O)C2C(O)CCN2c2nc(C)cc(C(F)(F)F)c2C#N)c1, the viability, T/C was 99.4%.

Source of the values: PubChem BioAssay AID1963845 (Molecular Pharmacology Branch, DTP, NCI, 2024).
